Peptide text beside a SMILES is read from it. * marks the point of attachment. Cbz = O=C(OCc1ccccc1)*
Assays:
NRVMs = assay: DNA damage by γH2AX and comet assay in NRVMs; format: cell-based, rat; conditions: β-lac 5 μM, MG132 10 μM
Protocol: Cultured neonatal rat ventricular cardiomyocytes (NRVMs) were treated as indicated, and then washed with cold PBS, following the protocol of the comet assay kit (Trevigen, Cat #: 4250-050-K) under alkaline conditions. Mean tail moments were quantified for 300-500 cells per sample in each experiment, with Comet Assay Software Project (v1.2.3b1).
(§1) Cardiomyocyte immunofluorescence was measured as previously described (Erickson, J. R. et al., Physiological reviews 91, 889-915, doi:10.1152/physrev.00018.2010 (2011)).

UBE2T [1] = assay: UBE2T protein level by western blot in NRVMs; format: cell-based, rat; conditions: for CaMKII-δ9-induced reduction of the UBE2T protein level: β-lac 5 μM, MG132 10 μM
Protocol: NRVMs were isolated from 1-day-old Sprague-Dawley rats, and adenovirus-mediated gene transfer was implemented using methods described previously (Zhang, T. et al., Nature medicine 22, 175-182, doi: 10.1038/nm.4017 (2016)). NRVMs were exposed to H2O2 (200 μM) or Dox (1 μM) for 24 h.
(§2) Western blot and co-immunoprecipitation were performed as previously described (Zhang, T. et al., Nature medicine 22, 175-182, doi:10.1038/nm.4017 (2016)).

CaMKII-δ9 = CaMKII-δ9 protein level, phosphorylation and oxidation in NRVMs under stress; format: cell-based, rat; conditions: for expression of CaMKII-δ9 (protein): Dox 1 μM or H2O2 200 μM, 24 h
Protocol: NRVMs were isolated from 1-day-old Sprague-Dawley rats, and adenovirus-mediated gene transfer was implemented using methods described previously (Zhang, T. et al., Nature medicine 22, 175-182, doi: 10.1038/nm.4017 (2016)). […]
as §2

UBE2T [2] = assay: Immunostaining of myc-tagged UBE2T location in NRVMs; format: cell-based, rat; design: dose or concentration left out as unconfirmed
Protocol: as §1

exon 16 of CaMKII-δ = assay: Transverse aortic constriction (TAC) in CaMKII-δ9 shRNA transgenic mice; format: in vivo, mouse
Protocol: Transverse aortic constriction (TAC) was performed in 6-week-old male mice. Mice were anesthetized under 3% isoflurane via intubation, the chest was opened, the aortic arch was visualized, and a 7-0 silk suture was passed under the arch between the innominate and left common carotid arteries. The suture was secured around both the aorta and a 28-gauge needle, the needle was removed, the chest was closed, and the mouse was extubated. Sham-operated mice underwent an identical procedure except for the aortic ligation. Mice were given buprenorphine via intraperitoneal injection during recovery.
The sequence of miR30-based CaMKII-δ9 shRNA was 5′-[…] […]-3′ (SEQ ID NO: 37). The shRNA with an N-terminal EGFP tag and C-terminal BGH poly A sequences was cloned into the pLKO.1 plasmid containing the U6 promoter. After linearization, gel-purification was performed. This construct was microinjected into the pronuclei of fertilized C57BL/6J mouse eggs. PCR was used for genotyping. The primer sequences were 5′-[…]-3′ (forward) (SEQ ID NO: 38) and 5′-[…]-3′ (reverse) (SEQ ID NO: 39).
Echocardiographic analysis using a Vevo2100 digital imaging system (Visual Sonics, Toronto, ON, Canada) was performed under 1% isoflurane at 6 and 10 weeks of age, with mid-ventricular M and B mode measurements acquired in the parasternal short-axis view at the level of the papillary muscles. Once the mice were acclimated to the procedures, images were stored in digital format on a magnetic optical disk for review and analysis. Measurements of the LV internal end-diastolic diameter (LVIDd) were made at the time of apparent maximal LV diastolic dimension, while measurements of the LV internal end-systolic diameter (LVIDs) were taken at the time of the most anterior systolic excursion of the posterior wall. LV ejection fraction (EF) was calculated by the cubic method: LVEF (%)={(LVIDd)^3−(LVIDs)^3}/(LVIDd)^3×100, and LV fractional shortening (FS) was calculated by FS (%)=(LVIDd−LVIDs)/LVIDd×100. The data were averaged from 5 cardiac cycles.
Histological analysis of heart tissue was as previously described (Zhang, T. et al. Nature medicine 22, 175-182, doi: 10.1038/nm.4017 (2016)). The CardioTACS™ in situ apoptosis detection kit (Roche Applied Science, Cat #: 11684795910) was used for TUNEL staining as previously described (Zhang, T. et al. Nature medicine 22, 175-182, doi:10.1038/nm.4017 (2016)).

Question: How did the “CaMKII-δ9-mediated γH2AX upregulation” value (NRVMs) turn out when `CC(C)[C@H](O)[C@@]12NC(=O)[C@H](C)[C@@H]1OC2=O` [β-lac, clasto-lactacystin β-lactone] was run?
Answer: block

Question: What about the “CaMKII-δ9-induced reduction of the UBE2T protein level” value (UBE2T [1]) of the same molecule?
Answer: fully abolished

Question: How did the UBE2T protein level (UBE2T [1]; NRVMs, western blot) turn out when `OO` [H2O2] was run?
Answer: decreased

Question: What about the “expression of CaMKII-δ9 (protein)” value (CaMKII-δ9) of the same molecule?
Answer: significantly elevated

Question: Which “expression of CaMKII-δ9 (protein)” value (CaMKII-δ9) does the source give for `COc1cccc2c1C(=O)c1c(O)c3c(c(O)c1C2=O)C[C@@](O)(C(=O)CO)C[C@@H]3O[C@H]1C[C@H](N)[C@H](O)[C@H](C)O1` [Doxorubicin] here?
Answer: significantly elevated

Question: What about the “oxidation level of CaMKII-δ9” value (CaMKII-δ9; Dox 1 μM, 30 and 60 min) of the same molecule?
Answer: increased

Question: And the “phosphorylation level of CaMKII-δ9” value (CaMKII-δ9; Dox 1 μM, 30 and 60 min)?
Answer: increased

Question: Which “subcellular location of UBE2T” value (UBE2T [2]) does the source give for `CC(C)C[C@@H](C=O)NC(=O)[C@H](CC(C)C)NC(=O)[C@H](CC(C)C)NC(=O)OCc1ccccc1` [MG132] (Cbz-Leu-Leu-Leu-aldehyde) here?
Answer: present in both the nuclear and cytosolic compartments

Question: And the “CaMKII-δ9-mediated γH2AX upregulation” value (NRVMs)?
Answer: block

Question: And the “CaMKII-δ9-induced reduction of the UBE2T protein level” value (UBE2T [1])?
Answer: fully abolished

B1: CaMKII-δ9 shRNA: miR30-based CaMKII-δ9 shRNA (SEQ ID NO: 37) targeting exon 16, expressed transgenically in mice (nucleic acid)
DNA: GAAGGTATATTGCTGTTGACAGTGAGCGCAATCCACAACCCTGACGGAAATAGTGAAGCCACAGATGTATTTCCGTCAGGGTTGTGGATTATGCCTACTGCCTCGG
Question: How did the “TAC-induced cardiac DNA damage (γH2AX)” value (exon 16 of CaMKII-δ; 4 weeks after TAC surgery) turn out when B1 was run?
Answer: reduced

Question: And the TAC-induced cardiac hypertrophy (exon 16 of CaMKII-δ; 4 weeks after TAC surgery)?
Answer: markedly attenuated

Question: And the “TAC-induced cardiomyocyte death (TUNEL)” value (exon 16 of CaMKII-δ; 4 weeks after TAC surgery)?
Answer: reduced

Question: And the “TAC-induced contractile dysfunction (EF, FS)” value (exon 16 of CaMKII-δ; 4 weeks after TAC surgery)?
Answer: markedly attenuated

Question: And the “cardiac UBE2T protein abundance” value (exon 16 of CaMKII-δ; 4 weeks after TAC surgery)?
Answer: augmented

Question: What about the TAC-induced premature death (exon 16 of CaMKII-δ; Kaplan-Meier survival) of the same molecule?
Answer: markedly attenuated

— patent US20220243249A1, “ANTAGONISTS OF CAMKII-DELTA 9 AND USES THEREOF” (PEKING UNIVERSITY, priority 2019, published 2022)
